Source: article PMC10610311, “Eugenol: In Vitro and In Ovo Assessment to Explore Cytotoxic Effects on Osteosarcoma and Oropharyngeal Cancer Cells” (Plants, 2023)

Tests used:
[1] = tested on: SAOS-2 (human osteosarcoma cells); assay: MTT cell viability assay, SAOS-2; type: cell-based; conditions: 72 h, read-out: cell viability (normalized to control)
Procedure: (§1) The present study was performed on two human cancer cell lines—SAOS-2 (osteosarcoma cells) and Detroit-562 (oropharynx squamous carcinoma cells), respectively, which were received from ATCC in the form of frozen vials. SAOS-2 cells were cultured in DMEM, while Detroit-562 cells were cultured using EMEM. Both media contained 10% FCS and 1% penicillin (100 U/mL)–streptomycin (100 μg/mL) mixture. Over the course of the experiments, the cells were incubated at 37 °C and 5% CO2.
(§2) A colorimetric approach—the MTT [[…])-2,5-diphenyltetrazolium bromide] assay, was used to determine cell viability. This was accomplished by cultivating the cells in 96-well plates at a density of 1x10^4 cells per well. Upon achieving a confluence of approximately 90%, the cells were stimulated for 72 h with five concentrations of Eug (0.1; 0.25; 0.5; 0.75 and 1 mM). The Eug solutions were prepared by diluting stock solution in culture medium. After this time interval, 10 μL of MTT reagent was added to each well, and the cells were incubated for three hours at 37 °C. To solubilize the MTT formazan crystals, 100 μL of solubilizer were added to each well, and after 30 min, the absorbance was measured at 570 nm using Cytation 5 (BioTek Instruments Inc., Winooski, VT, USA).

[2] = tested on: Detroit-562 (oropharynx squamous carcinoma cells); assay: MTT cell viability assay, Detroit-562; type: cell-based; conditions: Homo sapiens, 72 h, read-out: cell viability (normalized to control)
Procedure: as §1, §2

SAOS-2 cells [3] = assay: Cellular morphology evaluation (bright field), SAOS-2; type: cell-based, human; conditions: SAOS-2, concentrations higher than 0.1 mM, 72 h
Procedure: (§3) As a means of determining the impact of Eug on the morphology of cells, the microscopic evaluation of SAOS-2 and Detroit-562 cells was carried out after exposure for 72 h. The changes were observed under bright field illumination with the help of the Olympus IX73 inverted microscope (Olympus, Tokyo, Japan), and the processing of the images for the purpose of analysis was carried out by means of CellSens Dimensions v.17 Software (Olympus, Tokyo, Japan).

Detroit-562 cells [4] = assay: Cellular morphology evaluation (bright field), Detroit-562; type: cell-based, human; conditions: Detroit-562, Eug 0.1 mM, 72 h, vs control
Procedure: as §3

SAOS-2 cells [5] = assay: DAPI nuclear morphology / apoptotic index, SAOS-2; type: cell-based, human; conditions: 72 h
Procedure: (§4) Using immunofluorescence, it was possible to provide further details regarding Eug’s effects on osteosarcoma and oropharynx squamous carcinoma nuclei. The technique was performed for cells stimulated with Eug 0.5 and 1 mM for 72 h. The applied protocol assumed the following stages: (i) culturing the cells in 12-well plates and stimulating them after reaching the desired confluence with Eug 0.5 and 1 mM for 72 h; (ii) washing with PBS and fixing the cells with 4% paraformaldehyde; (iii) permeabilization with Triton X 0.2%; (iv) blocking the permeabilization with a FCS solution in Triton X 0.01%; and (v) adding DAPI for 15 min. The pictures were then taken with Cytation 1 and processed using Gen5™ Micro-plate Data Collection and Analysis Software v. 3.12 (BioTek® Instruments Inc., Winooski, VT, USA). For a quantitative analysis of the Eug impact at the cellular level, the cell apoptosis index (AI) was calculated using the previously described formula [76]: AI=Number of apoptotic cells/Total number of cells×100
(§5) In accordance with the published protocols, the nuclear morphology was evaluated using ImageJ software v.6 [77].

Detroit-562 cells [6] = assay: DAPI nuclear morphology / apoptotic index, Detroit-562; type: cell-based, human; conditions: 72 h
Procedure: as §4, §5

[7] = tested on: Bax, Bad, Bcl-2 mRNA in SAOS-2 cells; assay: RT-PCR expression of apoptosis-related genes, SAOS-2; type: cell-based, human; conditions: SAOS-2, Eug 0.5 mM, 72 h, normalized to 18S
Procedure: (§6) To investigate the potential cell-death mechanism induced by Eug 0.5 mM in SAOS-2 and Detroit-562 cells, the expression of pro-apoptotic (Bax, Bad) and anti-apoptotic (Bcl-2) markers was evaluated using the real-time reverse transcription–polymerase chain reaction (RT-PCR) technique after 72 h of treatment. RNA extraction was performed using the Quick-RNA Miniprep Kit (Zymo Research, Irvine, CA, USA), and the amount of extracted RNA was measured with the DS-11 spectrophotometer (DeNovix, Wilmington, DE, USA). The cDNA was produced using the Maxima® First Strand cDNA Synthesis Kit, and the RT-qPCR quantification was performed using a Quant Studio 5 real-time PCR system (Thermo Fisher Scientific, Inc., Waltham, MA, USA) and Power SYBR-Green PCR Master Mix (Thermo Fisher Scientific, Inc., Waltham, MA, USA).

[8] = tested on: Bax, Bad, Bcl-2 mRNA in Detroit-562 cells; assay: RT-PCR expression of apoptosis-related genes, Detroit-562; type: cell-based, human; conditions: Detroit-562, Eug 0.5 mM, 72 h, normalized to 18S
Procedure: as §6

[9] = tested on: caspases 3/7, 8, and 9 in SAOS-2 cells; assay: Caspase-Glo caspase-3/7, -8, -9 activity, SAOS-2; type: cell-based, human; conditions: SAOS-2, Eug 0.5 mM, 72 h
Procedure: (§7) The activity of caspases 3/7, 8, and 9 was determined after the SAOS-2 and Detroit-562 cells’ 72 h treatment with Eug 0.5 mM, using the Caspase-Glo Kit provided by Promega, Madison, WI, USA. The plates were first equilibrated at room temperature for 30 min, then, the Caspase-Glo reagent (100 μL/well) was added. The plates were shaken for 30 s on a plate shaker and maintained at room temperature for another 2 h. Finally, the luminescence was measured on Cytation 5 (BioTek Instruments Inc., Winooski, VT, USA).

[10] = tested on: caspases 3/7, 8, and 9 in Detroit-562 cells; assay: Caspase-Glo caspase-3/7, -8, -9 activity, Detroit-562; type: cell-based, human; conditions: Detroit-562, Eug 0.5 mM, 72 h
Procedure: as §7

SAOS-2 cells [11] = assay: RealTime-Glo Annexin V Apoptosis and Necrosis Assay, SAOS-2; type: cell-based, human; conditions: SAOS-2, Eug 0.5 mM, 0-72 h
Procedure: (§8) To confirm the apoptotic effect of Eug 0.5 mM in Saos-2 and Detroit-562 cells, the RealTime-Glo™ Annexin V Apoptosis and Necrosis Assay was performed according to the manufacturer’s protocol. In brief, the cells were cultured in solid white bottom 96-well plates (Costar® 3917) and treated with Eug. The prepared 2X Detection Reagent that contained Annexin V NanoBiT™ Substrate, Annexin V-SmBiT, Annexin V-LgBiT, CaCl2, and Necrosis Detection Reagent was added in each well and the plates were shaken for 30 s at 500 rpm. The luminescence and fluorescence (excitation 485 ± 20 nm, and emission 525 ± 30 nm) were recorded at different time points (0, 6, 12, 24, 48, and 72 h post-treatment) using Cytation 5. Background signals (from no-cell wells) that were subtracted from the wells that contained cells.

Detroit-562 cells [12] = assay: RealTime-Glo Annexin V Apoptosis and Necrosis Assay, Detroit-562; type: cell-based, human; conditions: Detroit-562, Eug 0.5 mM, 0-72 h
Procedure: as §8

[13] = tested on: chorioallantoic membrane of hen's eggs; assay: Hen's Egg Test - Chorioallantoic Membrane (HET-CAM); type: in vivo, Gallus gallus domesticus; design: key to IS (irritation score): IS = 5×(301−H)/300 + 7×(301−L)/300 + 9×(301−C)/300; tH, time at which hemorrhage was established / tL, time at which vascular lysis was established / tC, time at which intravascular coagulation was established: unit not given here; conditions: Eug 1 mM / SDS 1%, monitored 5 min; for IS (irritation score): 600 µL on CAM
Procedure: The irritant and toxic potential of Eug (1 mM) at the vascular level was assessed by performing the HET-CAM assay, as previously described. In brief, several steps were followed: […] (ii) on day 4 after incubation, a perforation was made in each egg to extract 6 to 7 mL of albumen; (iii) on the next day of incubation, a window was cut in the upper part of the eggs to facilitate the visualization of the blood vessels, and was covered using adhesive tape; (iv) on day 10 of incubation, 600 µL of each sample (negative control—H2O, positive control—SDS 1%, and Eug 1 mM) were added to the chorioallantoic membrane; (v) the compounds’ ability to produce hemorrhage (H), vascular lysis (L), and coagulation was monitored for 5 min, taking photos (using the Discovery 8 Stereomicroscope from Zeiss, Göttingen, Germany and the Zeiss Axio CAM 105 color camera) prior to the addition of the samples (T0) and at the end of the 5 min period (T5); and (vi) the irritation score (IS) was finally determined for each sample, according to the following formula: IS=5×301−H/300+7×301−L/300+9×301−C/300, where IS = irritation score, H—the time at which the hemorrhage was observed, L—the time at which vascular lysis occurred and C—the time at which intravascular coagulation was established.

[14] = tested on: colorectal carcinoma cells (HCT-116); design: method as in doi:10.31925/farmacia.2023.2.8; conditions: HCT-116, Eug between 0.1 and 1 mM; cited from earlier work
[15] = tested on: gingival fibroblasts (HGF); design: method as in PMID 36675971, doi:10.31925/farmacia.2023.2.8; conditions: same concentration and time interval as current study; cited from earlier work
keratinocytes (HaCaT) = conditions: cited from earlier work
[16] = tested on: tongue squamous carcinoma cells (SCC4); design: method as in PMID 36675971; conditions: SCC4, Eug between 0.1 and 1 mM; cited from earlier work
SAOS-2 cells [17] = tested on: SAOS-2 cells; design: method as in PMID 26929741; conditions: SAOS-2, 100 μM; cited from earlier work
[18] = SAOS-2, Eug 0.5 and 1 mM, vs control
[19] = Detroit-562, Eug 0.5 and 1 mM, vs control

C=CCc1ccc(O)c(OC)c1 [Eug, 4-alil-2-metoxifenol]
viability at 100 µM ([1]; SAOS-2, Eug 0.1 mM): 92%
viability at 1000 µM ([1]; SAOS-2, Eug 1 mM): 41%
viability at 100 µM ([2]; Detroit-562, Eug 0.1 mM): 89%
viability at 1000 µM ([2]; Detroit-562, Eug 1 mM): 37%
impact on cellular shape and confluence (SAOS-2 cells [3]): significant impact
changes in aspect or confluence of cells (Detroit-562 cells [4]): no significant changes
apoptotic index (AI) (SAOS-2 cells [5]; SAOS-2, Eug 0.5 mM, DAPI): 25%
nucleus area (SAOS-2 cells [5]; [18]): decreased significantly
nucleus circumference (SAOS-2 cells [5]; [18]): decreased significantly
apoptotic index (AI) (Detroit-562 cells [6]; Detroit-562, Eug 0.5 mM, DAPI): 30%
nucleus area (Detroit-562 cells [6]; [19]): decreased significantly
nucleus circumference (Detroit-562 cells [6]; [19]): decreased significantly
expression of anti-apoptotic marker Bcl-2 (mRNA) [7]: decreasing
expression of pro-apoptotic marker Bad (mRNA) [7]: significantly increasing
expression of pro-apoptotic marker Bax (mRNA) [7]: significantly increasing
expression of anti-apoptotic marker Bcl-2 (mRNA) [8]: decreasing
expression of pro-apoptotic marker Bad (mRNA) [8]: significantly increasing
expression of pro-apoptotic marker Bax (mRNA) [8]: significantly increasing
activation of caspase 3/7 [9]: significant increase
activation of caspase 8 [9]: significant increase
activation of caspase 9 [9]: significant increase
activation of caspase 3/7 [10]: significant increase
activation of caspase 8 [10]: significant increase
activation of caspase 9 [10]: significant increase
luminescence signal (phosphatidylserine externalization), preceding the fluorescence increase (SAOS-2 cells [11]): time-dependent increase
luminescence signal (phosphatidylserine externalization), preceding the fluorescence increase (Detroit-562 cells [12]): time-dependent increase
IS (irritation score) [13]: 1.69
tC, time at which intravascular coagulation was established [13]: 263
tH, time at which hemorrhage was established [13]: 300
tL, time at which vascular lysis was established [13]: 278
decrease in cell viability [14]: up to 34%
decrease in cell viability [15]: ≤ 70%
decrease in cell viability (keratinocytes (HaCaT); HaCaT, same concentration and time interval as current study): ≤ 70%
cell viability (in words) [16]: dose-dependent decrease

CCCCCCCCCCCCOS(=O)(=O)[O-].[Na+] [SDS, sodium dodecyl sulfate, reference compound]
IS (irritation score) [13]: 19.87
tC, time at which intravascular coagulation was established [13]: 15
tH, time at which hemorrhage was established [13]: 21
tL, time at which vascular lysis was established [13]: 17

CN(Cc1cnc2nc(N)nc(N)c2n1)c1ccc(C(=O)N[C@@H](CCC(=O)O)C(=O)O)cc1 [methotrexate, reference compound]
cell viability (in words) (keratinocytes (HaCaT); non-tumor cells HaCaT, methotrexate more pronounced): reduced cell viability in a dose-dependent manner
cell viability (SAOS-2 cells [17]): below 20%
